# How the values were obtained:
# [1] = tested on: CH1 cells (human ovarian carcinoma); assay: MTT assay, antiproliferative activity in CH1 cells; format: cell-based; details: for IC50: MTT assay, exposure time 96 h, means ± SD; for more active than the respective osmium analogue: CH1 cells
# Excerpt: (§1) CH1 cells (human ovarian carcinoma) were a generous gift from Lloyd R. Kelland, CRC Centre for Cancer Therapeutics, Institute of Cancer Research, Sutton, UK. SW480 (human adenocarcinoma of the colon) and A549 (human nonsmall cell lung cancer) cells were kindly provided by Brigitte Marian (Institute of Cancer Research, Department of Medicine I, Medical University of Vienna, Austria). All cell culture media and reagents were purchased from Sigma-Aldrich Austria and plastic ware from Starlab Germany. Cells were grown in 75 cm^2 culture flasks as adherent monolayer cultures in minimum essential medium (MEM) supplemented with 10% heat-inactivated fetal calf serum, 1 mM sodium pyruvate, 4 mM L-glutamine, and 1% nonessential amino acids (from 100× ready-to-use stock). Cultures were maintained at 310 K in humidified atmosphere containing 95% air and 5% CO2.
# (§2) Cytotoxic effects of the test compounds were determined by means of a colorimetric microculture assay [MTT assay; MTT = 3-(4,5-dimethyl-2-thiazolyl)-2,5-diphenyl-2H-tetrazolium bromide] as described previously.[13] Cells were harvested from culture flasks by trypsinization and seeded by using a pipetting system (Biotek Precision XS Microplate Sample Processor) in densities of 1 × 10^3 (CH1), 2 × 10^3 (SW480), and 3 × 10^3 (A549) in 100 μL/well aliquots in 96-well microculture plates. For 24 h, cells were allowed to settle and resume proliferation. […] After 96 h of drug exposure, the medium was replaced with 100 μL/well of a 1:7 MTT/RPMI 1640 mixture (MTT solution, 5 mg/mL of MTT reagent in phosphate-buffered saline; RPMI 1640 medium, supplemented with 10% heat-inactivated fetal bovine serum and 4 mM L-glutamine), and plates were incubated for further 4 h at 310 K. Subsequently, the solution was removed from all wells, and the formazan crystals formed by viable cells were dissolved in 150 μL of DMSO per well. Optical densities at 550 nm were measured with a microplate reader (Biotek ELx808) by using a reference wavelength of 690 nm to correct for unspecific absorption. The quantity of viable cells was expressed relative to untreated controls, and 50% inhibitory concentrations (IC50) were calculated from concentration-effect curves by interpolation. Evaluation is based on means from three independent experiments.
# [2] = tested on: A549 (human nonsmall cell lung cancer) cells; assay: MTT assay, antiproliferative activity in A549 cells; format: cell-based; details: exposure time 96 h, means ± SD
# Excerpt: as §1, §2
# [3] = log D7.4 by shake-flask method, n-octanol/buffered aqueous solution; format: physicochemical; details: for log D7.4: n-octanol/0.02 M HEPES pH 7.4, T = 298.0 K; for log D7.4 in the presence of 0.1 M KCl: n-octanol/0.02 M HEPES pH 7.4, 0.1 M KCl, T = 298.0 K
# Procedure: ^1H NMR spectra were recorded on a Bruker Avance III instrument (Ultrashiled Magnet) at 500.13 MHz at room temperature. DMSO-d6 was used as a solvent. Standard pulse programs were applied. ^1H chemical shifts were measured relative to the residual solvent peaks. […] Complex concentration was 1.0 mM. Watergate water suppression program and 4,4-dimethyl-4-silapentane-1-sulfonic acid (DSS) internal standard were used. ATR-IR spectra were measured on a Bruker Vertex spectrometer. D7.4 values were determined by the traditional shake-flask method in n-octanol/buffered aqueous solution at pH 7.4 (N-(2-hydroxyethyl)piperazine-N′-ethanesulfonic acid (HEPES) buffer) and 298.0 ± 0.2 K, as described previously.[25] In the case of the complexes of L-Ala (2) and L-Val (3) the D7.4 values were determined in the presence of 0.1 M KCl as well. Two parallel experiments were performed for each sample. The complexes were dissolved at 0.3 mM in the n-octanol presaturated aqueous solution of the buffer (0.02 M). The aqueous solutions and n-octanol with 1:1 phase ratio were gently mixed with 360° vertical rotation for 3 h to avoid emulsion formation, and the mixtures were centrifuged at 5000 rpm for 3 min by a temperature-controlled centrifuge at 298 K. After separation, UV spectra of the complexes in the aqueous phase were compared to those of the original aqueous solutions, and D7.4 values were calculated as the mean of [absorbance (original solution)/absorbance (aqueous phase after separation) – 1] obtained in the region of λ ≈ (250–290 nm). Circular dichroism (CD) and UV–vis spectra under physiological conditions (0.02 M phosphate buffer, pH 7.40 with 0.1 M KCl) were recorded on a Jasco J-815 spectrometer in an optical cell of 2 cm path length (l) in the wavelength range from 220 to 600 nm. The analytical concentration for the CD measurement of the complexes was 400 μM in aqueous solution. CD data are given as the differences in molar absorptivities between left and right circularly polarized light, based on the concentration of the […] (Δε = ΔA/l/ccomplex). The concentrations for the UV–vis measurements amounted to 403 (1), 401 (4), 401 (5), 400 (8), 399 (3), 401 (2), 403 (7), and 401 (6) μM.
# The log D7.4 values of the complexes were determined by the traditional shake-flask method in n-octanol/buffered aqueous solution at pH 7.4 by analysis of the UV–vis spectra of the aqueous phases before and after separation (Supporting Information, Figure S10 and Table 5).
# [4] = tested on: SW480 (human adenocarcinoma of the colon) cells; assay: MTT assay, antiproliferative activity in SW480 cells; format: cell-based; details: for IC50: MTT assay, exposure time 96 h, means ± SD; for more active than the respective osmium analogue: SW480 cells
# Excerpt: as §1, §2
# [5] = Stability in aqueous solution by UV-vis spectroscopy; format: physicochemical; details: pH 7.40, 0.02 M HEPES, 0.25 mM, 298.0 K, in the presence of 0.1 M KCl or in its absence
# [6] = Hydrolytic stability by 1H NMR spectroscopy; format: physicochemical; details: 10% D2O/H2O, pH = 5.86, compared with pH 7.4 buffer
# Procedure: ^1H NMR spectra were recorded on a Bruker Avance III instrument (Ultrashiled Magnet) at 500.13 MHz at room temperature. DMSO-d6 was used as a solvent. Standard pulse programs were applied. ^1H chemical shifts were measured relative to the residual solvent peaks. […] Complex concentration was 1.0 mM. Watergate water suppression program and 4,4-dimethyl-4-silapentane-1-sulfonic acid (DSS) internal standard were used. ATR-IR spectra were measured on a Bruker Vertex spectrometer. D7.4 values were determined by the traditional shake-flask method in n-octanol/buffered aqueous solution at pH 7.4 (N-(2-hydroxyethyl)piperazine-N′-ethanesulfonic acid (HEPES) buffer) and 298.0 ± 0.2 K, as described previously.[25] In the case of the complexes of L-Ala (2) and L-Val (3) the D7.4 values were determined in the presence of 0.1 M KCl as well. […] The aqueous solutions and n-octanol with 1:1 phase ratio were gently mixed with 360° vertical rotation for 3 h to avoid emulsion formation, and the mixtures were centrifuged at 5000 rpm for 3 min by a temperature-controlled centrifuge at 298 K. After separation, UV spectra of the complexes in the aqueous phase were compared to those of the original aqueous solutions, and D7.4 values were calculated as the mean of [absorbance (original solution)/absorbance (aqueous phase after separation) – 1] obtained in the region of λ ≈ (250–290 nm). […]
# [7] = Co-incubation with sodium ascorbate followed by ESI mass spectrometry; format: physicochemical; details: 4 equiv sodium ascorbate (200 μM), 310 K, over 24 h
# Procedure: (§3) The stability of four compounds, namely 1, 4, 5, and 8, in aqueous solution and in the presence of 4 equiv of sodium ascorbate was investigated using an AmaZon SL ESI ion trap mass spectrometer (Bruker Daltonics GmbH, Bremen, Germany). For this purpose, the compounds were diluted from 400 μM stock solution (1% DMSO) to 50 μM in water and in the presence of 200 μM sodium ascorbate. The solutions were incubated at 310 K in the dark, and samples were measured after 0.5, 1, 2, 6, and 24 h after a second dilution step to 5 μM of the metal compound. The samples were introduced by direct infusion into the mass spectrometer at 280 μL/h, and mass spectra were recorded over 0.5 min and averaged. Typical experimental conditions were as follows: high voltage (HV) capillary ±4.5 kV, dry temp 180 °C, nebulizer 8 psi, dry gas 6 L/min, radio frequency (RF) level 77%, trap drive 57.6, average accumulation time 25 ms (negative ion mode) and 120 μs (positive ion mode). […]
# (§4) The aqueous stability of compounds 1, 4, 5, and 8 was also confirmed by ESI mass spectrometry. […] Dissolution of 1 in D2O leads to the change of the labile −NH2 to −ND2, and the resulting compound [RuCl3(N,N-d2-Gly−H)(NO)] ^– (m/z 314.74 compared to m/z 312.72 of 1) was analyzed. […] Note that related ruthenium-nitrosyl complexes with azole heterocycles reacted quantitatively with sodium ascorbate within several hours.[15]
# [8] = Aqueous stability by ESI mass spectrometry; format: physicochemical; details: 50 μM in water, 310 K, over 24 h
# Procedure: as §3, §4
Compound,IC50 [1] [µM],IC50 [2] [µM],log D7.4 [3],IC50 [4] [µM],more active than the respective osmium analogue [1] [fold],more active than the respective osmium analogue [4] [fold],hydrolysis over 24 h (absorbance at 250 nm) [5],hydrolytic stability: 1H NMR in nonbuffered medium [6],ligand release on incubation with sodium ascorbate [7],"aqueous stability, species in negative ion mode ESI mass spectra [8]",log D7.4 in the presence of 0.1 M KCl [3]
"CCCC[N+](CCCC)(CCCC)CCCC.C[C@@H](O)[C@@H]1[NH2+][Ru-2]([Cl])([Cl])([Cl])([N]=O)[O]C1=O [complex 7, (nBu4N)[RuCl3(L-Thr–H)(NO)]]",23 ± 2,> 320,–1.75 ± 0.02,71 ± 15,,,,,,,
(nBu4N)[RuCl3(D-Pro–H)(NO)] [complex 5],,,,,11,14,,,,,
"CCCC[N+](CCCC)(CCCC)CCCC.O=[N][Ru-2]1([Cl])([Cl])([Cl])[NH2+][C@@H](Cc2ccc(O)cc2)C(=O)[O]1 [complex 8, (nBu4N)[RuCl3(L-Tyr–H)(NO)]]",17 ± 3,> 320,,38 ± 12,,,negligible,showed the same NMR spectra,did not induce ligand release,[RuCl3(AA–H)NO]^− as the major species,
"CCCC[N+](CCCC)(CCCC)CCCC.C[C@@H]1[NH2+][Ru-2]([Cl])([Cl])([Cl])([N]=O)[O]C1=O [complex 2, (nBu4N)[RuCl3(L-Ala–H)(NO)]]",12 ± 2,> 320,–1.63 ± 0.08,47 ± 3,,,,,,,–1.47 ± 0.11
(nBu4N)[RuCl3(L-Val–H)(NO)] [complex 3],27 ± 3,> 320,–1.13 ± 0.02,53 ± 2,,,,,,,–1.31 ± 0.07
(nBu4N)[RuCl3(L-Pro–H)(NO)] [complex 4],,,,,5.7,4.4,,,,,
"CCCC[N+](CCCC)(CCCC)CCCC.O=[N][Ru-2]1([Cl])([Cl])([Cl])[NH2+][C@@H](CO)C(=O)[O]1 [complex 6, (nBu4N)[RuCl3(L-Ser–H)(NO)]]",13 ± 2,> 320,–1.77 ± 0.12,63 ± 10,,,,,,,

# Reference: PMC3942006, “Ruthenium-Nitrosyl Complexes with Glycine, L-Alanine, L-Valine, L-Proline, D-Proline, L-Serine, L-Threonine, and L-Tyrosine: Synthesis, X-ray Diffraction Structures, Spectroscopic and Electrochemical Properties, and Antiproliferative Activity” (Inorganic Chemistry, 2014)
